Assay results: patent US20200306295A1, “METHOD AND DEVICE FOR ANNIHILATION OF Staphylococcus aureus” (priority 2017, published 2020)
Converted amounts (≈) assume the structure as drawn. “Also recorded” adds a separate entry of the source. Where two headings read alike, the source gives them in different places.

Columns and labels:
[1] = tested on: MRSA NRS384 (MRSA USA 300); experiment: MIC by standard broth-dilution method; assay type: cell-based, S. aureus
Source text: For each measurement, three independent replicates were applied.

stationary-phase MRSA [2] = assay type: cell-based, S. aureus; conditions: for fold reduction of lowest concentration completely inhibiting MRSA growth within 18 hours, with laser treatment: 16 min laser stated for tetracycline, 2-fold or larger is synergy (FICI)
Protocol: To monitor the response of bacteria to laser treatment alone, antibiotic treatment alone, or their combinations, bacterial growth was continuously monitored overnight (18 hours with an interval of 30 min at 37° C.) by measuring optical density at 600 nm (OD600). Depending on the specific assay applied, the bacterial cells were suspended in 100 or 200 μl TSB medium under different treatment schemes (antibiotic alone, laser treatment alone, antibiotic plus laser treatment) with a final concentration of ˜10^5 CFU/ml. Bacterial growth was defined as OD600≥0.1.
Stationary-phase bacterial cells was washed and resuspended in 1×PBS at its original concentration. […] The treated droplet was collected and resuspended into 5 ml TSB (1:1000 dilution) for each group. Corresponding groups without laser treatment were also conducted for comparison. The bacterial suspensions were transferred to a 96-well plate with antibiotics supplemented into with the first row of the 96-well plate for eight two-fold serial dilution starting at a desired antibiotic concentration (e.g. ofloxacin: 2 μg/ml). After serial dilution, bacterial growth within the same well plate was monitored by a plate reader for 18 hours (OD600, 37° C.). The checkerboard assay was used for groups with laser treatment alone or laser plus antibiotic treatment. Two independent experiments of checkerboard assay were performed for each antibiotic with or without laser treatment. Based on the readout of OD600, a heat map was created to evaluate the antibiotic potentiation or synergistic effect enabled by STX photolysis.
Based on the checkerboard results, the fractional inhibitory concentration index (FICI), a synergy evaluation method between two antibiotics, was calculated as below: FICI=MIC of antibiotic A in combination/MIC of antibiotic A alone+MIC of antibiotic B in combination/MIC of antibiotic B alone. The interaction of the two antibiotics was defined as below: synergy if FICI≤0.5, no interaction if 0.5<FICI≤4, antagonism if FICI>4^46. […] Considering this reason, the synergy calculation was simplified as below: FICI=MIC of antibiotic A in combination with laser treatment/MIC of antibiotic A alone with synergy defined by FICI≤0.5.

MRSA = experiment: microbe, parasite or virus in culture; assay type: cell-based, S. aureus; conditions: for MIC: Staphylococcus aureus, MRSA; for resistance development with laser treatment: 48-day serial passage, sub-MIC antibiotic with 10 min laser
Protocol: To understand whether laser treatment could cause genotypic or phenotypic change in MRSA, and whether STX photolysis could reduce the resistance development for conventional antibiotics, a serial passage study for each treatment scenario was conducted. The initial generation (Day 1) used in this study was stationary-phase MRSA. The sample was prepared, washed and resuspended in 1×PBS at its original concentration. An aliquot (5 μl) of the MRSA suspension was transferred onto a glass cover slide as a droplet of ˜5 mm in diameter with or without 10 min laser treatment (1 cm diameter illumination area, 120 mW). The droplets were then collected and resuspended into 5 ml of TSB medium (1:1000 dilution) with an estimated cell concentration of 10^5 CFU/ml. To study resistance development or selection induced by laser treatment alone, three groups were included: a group without laser treatment (SPO), a group with laser treatment (SPL1), and another independent group with laser treatment as a duplicate (SPL2). To study resistance development induced by antibiotic treatment alone and laser plus antibiotic treatment, three groups were included for each antibiotic: antibiotic alone-treated group (SPA0), laser plus antibiotic-treated group (SPLA1), and another laser plus antibiotic-treated group as another independent serial passage (SPLA2). For SPO, SPL1, and SPL2, 200 μl of bacterial suspension was directly transferred to each well of a 96-well plate, with three replicates conducted for each group. For SPA0, SPLA1, and SPLA2, 200 μl of bacterial suspension was transferred into the first dilution row of a 96-well plate with supplemented antibiotics at a desired starting concentration, whereas 100 μl of bacterial suspension was transferred to the rest dilution rows. […] Three replicates were applied for each group. These well plates were incubated in a shaker at 37° C. and 200 rpm for 18 hours followed by OD600 measurement by a plate reader. After MICs recording for each group, the well plates were continuously incubated in the shaker for 3 days in total. On Day 4, 200 μl of bacterial sample from each group was collected, washed, and resuspended in 1×PBS at its original concentration used as new inoculum for the next passage following the same protocol as described above. Samples for SPA0, SPLA1, and SPLA2 groups were collected from wells supplemented with sub-MIC antibiotic. Samples for SPO, SPL1, and SPL2 groups were also collected from the well plates. […] Serial passage for all groups were performed for […] with 16 generations in total. Raman spectroscopy was then applied to monitor STX expression level in groups of interest after the entire serial passage experiment. The protocol is detailed as below: 100 μl of ˜400 μl stored bacterial culture was collected, spun down with the supernatant being removed, then resuspended into 5 μl 1×PBS as high-concentration bacterial solution (20 times concentrated). An aliquot (1 μl) was transferred and then sandwiched between two glass cover slides for STX quantification by resonance Raman spectroscopy.

stationary-phase MRSA [3] = experiment: Time-killing assay in PBS with or without pulsed laser (CFU enumeration); assay type: cell-based, S. aureus; conditions: for synergy of laser treatment with antibiotic against MRSA: 5 min laser plus 10 MIC antibiotic (FIG. 32)
Protocol: To quantify viable bacterial cells, CFU experiments were performed. 100 μl of sample analyte was transferred into a 96-well plate and then three or four ten-fold serial dilution achieved by transferring 20 μl bacterial culture into 180 μl 1×PBS in the next dilution row. After serial dilution, an aliquot (4 μl) from each well was spotted onto sterile TSA plates. After incubating the plates overnight (˜18 hours) at 37° C., the colonies were enumerated, and cell number was calculated in CFU/ml. For each CFU enumeration experiment, three independent replicates were applied.
Stationary-phase MRSA was prepared, washed and resuspended in 1×PBS at two-times of its original concentration. […] After laser treatment, the droplets were resuspended into 200 μl of 1×PBS (1:40 dilution) supplemented with antibiotics at different concentrations in a mini centrifuge tube (89166-278, VWR international). For example, daptomycin was added into MRSA solution after laser treatment at desired concentration of 0×MIC, 5×MIC, 10×MIC, 30×MIC, or 100×MIC supplemented with 50 μg/ml CaCl2). Corresponding groups without laser treatment were also conducted for comparison. These tubes were incubated within an orbital incubator (37° C., 200 rpm) for different incubation time. At each specific time point, 40 μl of aliquot from each group was transferred to a 96-well plate for follow-up CFU enumerating assay. In the case of tobramycin, additional antibiotic washing by 1×PBS was performed before the CFU experiment to avoid antibiotic interference. For time-killing assay in fresh human whole blood, similar protocol was followed as above, except that 1×PBS was replaced by fresh human whole blood and the initial stationary-phase MRSA solution was diluted by ten times with a concentration of ˜10^7 CFU/ml.

stationary-phase MRSA [4] = experiment: Gentamicin-Texas red intracellular uptake assay; assay type: cell-based, S. aureus; conditions: gentamicin conjugated with Texas red, confocal fluorescence
Protocol: To study laser-mediated intracellular uptake of gentamicin (a representative of aminoglycoside), gentamicin was conjugated with a fluorescent dye, Texas-red, to form gentamicin-Texas red. Briefly, 10 mg of gentamicin was dissolved into 1 ml of 0.1 M sodium bicarbonate buffer (58761-500ML, Sigma Aldrich). 10 mg/ml of Texas red-X succinimidyl ester (T6134, Thermo Fisher Scientific) was added to the gentamicin solution slowly drop by drop. Then the mixed solution was stirred at room temperature for 1 hour. Gentamicin-Texas red was purified through sufficient dialysis against 0.1 M sodium bicarbonate buffer in a dialysis sack (Slide-A-Lyzer G2 Dialysis Cassettes, 2K MWCo, 15 mL, 87719, Thermao Fisher Scientific), and harvested through lyophilization (Labconco). […] After treatment, bacterial droplet was collected into 985 μl of sterile 1×PBS, and then add 10 μl of 1 mg/ml Gentamicin-Texas red. Mixed solution was incubated at 37° C. for 30 min with a shaking speed of 200 rpm. After incubation, MRSA pellets were harvested through washing with sterile 1×PBS twice and then fixed with 10% formalin. […] Quantitative analysis of fluorescence emission intensity from individual MRSA cells was conducted and allocated among groups with different laser treatment time.

[5] = read-out: MIC after 48-day serial passage, sub-MIC antibiotic alone

**Q.** Which MIC ([1]; Staphylococcus aureus) does the source give for `CC[C@H]1OC(=O)[C@H](C)[C@@H](O[C@H]2C[C@@](C)(OC)[C@@H](O)[C@H](C)O2)[C@H](C)[C@@H](O[C@@H]2O[C@H](C)C[C@H](N(C)C)[C@H]2O)[C@](C)(O)C[C@@H](C)C(=O)[C@H](C)[C@@H](O)[C@]1(C)O` [Erythromycin] here?
**A.** The MIC was 64 µg/mL (≈ 87.2 µM).

**Q.** How did the “fold reduction of lowest concentration completely inhibiting MRSA growth within 18 hours, with laser treatment” value (stationary-phase MRSA [2]) turn out when `CC1COc2c(N3CCN(C)CC3)c(F)cc3c(=O)c(C(=O)O)cn1c23` (stereo not drawn) [Ofloxacin, ofloxacin] was run?
**A.** The value was 2 fold.

**Q.** What about the MIC ([1]; Staphylococcus aureus) of the same compound?
**A.** Its MIC is 0.5 µg/mL (≈ 1.38 µM).

**Q.** And the MIC (MRSA; [5])?
**A.** The MIC was 128 µg/mL (≈ 354 µM).

**Q.** `Cc1onc(-c2ccccc2)c1C(=O)N[C@@H]1C(=O)N2[C@@H]1SC(C)(C)[C@@H]2C(=O)O` [Oxacillin, oxacillin] was tested. Which “antibiotic concentration re-sensitized by laser treatment” value (stationary-phase MRSA [2]; laser treatment plus oxacillin) did it give?
**A.** Its value is 1 µg/mL.

**Q.** And the MIC ([1]; Staphylococcus aureus, MRSA NRS384 (MRSA USA 300), N = 3, read-out: MIC)?
**A.** Its MIC is 8 µg/mL (≈ 19.9 µM).

**Q.** What about the “synergy of laser treatment with antibiotic against MRSA” value (shortened to “synergy of laser treatment”) (stationary-phase MRSA [3]) of the same compound?
**A.** Its value is “synergy; also recorded: very obvious synergy”.

**Q.** With `CO/N=C(\C(=O)N[C@@H]1C(=O)N2C(C(=O)O)=C(COC(C)=O)CS[C@H]12)c1csc(N)n1` [cefotaxime] as the compound, how does the “synergy of laser treatment” value (stationary-phase MRSA [3]) read?
**A.** The value was “very obvious synergy”.

**Q.** What about the “synergy of laser treatment” value (stationary-phase MRSA [3]; listed as cetotaxine) of the same compound?
**A.** The value was “synergy”.

**Q.** With `O=C(O)c1cn(C2CC2)c2cc(N3CCNCC3)c(F)cc2c1=O` [ciprofloxacin] as the compound, how does the “synergy of laser treatment” value (stationary-phase MRSA [3]) read?
**A.** The value was “synergy; also recorded: very obvious synergy”.

**Q.** And the “resistance development with laser treatment” value (from here on “resistance development”) (MRSA)?
**A.** Its value is “no resistance”.

**Q.** And the MIC (MRSA; [5])?
**A.** The MIC was 128 µg/mL (≈ 386 µM).

**Q.** What about the MIC (MRSA; read-out: MIC over/after 48-day serial passage, sub-MIC antibiotic plus 10 min laser treatment) of the same compound?
**A.** The MIC was no more than 2 µg/mL.

**Q.** With `CC(=O)NC[C@H]1CN(c2ccc(N3CCOCC3)c(F)c2)C(=O)O1` [linezolid] as the compound, how does the “fold reduction of lowest concentration completely inhibiting MRSA growth within 18 hours, with laser treatment” value (stationary-phase MRSA [2]) read?
**A.** The value was 8 fold.

**Q.** And the “resistance development” value (MRSA)?
**A.** Its value is “resistance inhibition”.

**Q.** Which results are given for `CN(C/C=C/c1ccccc1)Cc1cccc2ccccc12` [naftifine]?
**A.** second order bleaching constant τ2 (STX in MRSA; naftifine-treated MRSA, τ1=∞, wild-type MRSA 0.16±0.01 s): 0.39 ± 0.07 s; τ2 of naftifine-treated MRSA relative to wild-type MRSA (STX in MRSA; times longer than wild-type MRSA): 2.5 times

**Q.** With `NC[C@H]1O[C@H](O[C@H]2[C@H](O)[C@@H](O[C@H]3O[C@H](CO)[C@@H](O)[C@H](N)[C@H]3O)[C@H](N)C[C@@H]2N)[C@H](N)C[C@@H]1O` [tobramycin] as the compound, how does the “resistance development” value (MRSA) read?
**A.** Its value is “resistance inhibition”.

**Q.** gentamicin was tested. Which MIC ([1]; MRSA NRS384 (MRSA USA 300), N = 3) did it give?
**A.** Its MIC is 8 µg/mL.

**Q.** And the “synergy of laser treatment” value (stationary-phase MRSA [3])?
**A.** The value was “synergy; also recorded: very obvious synergy”.

**Q.** What about the MRSA reduction (stationary-phase MRSA [3]; pulsed laser treatment combined with antibiotic at 10 MIC (FIG. 32)) of the same compound?
**A.** Its MRSA reduction is “more than 2 log”.

**Q.** And the “intracellular uptake with laser treatment vs untreated” value (stationary-phase MRSA [4])?
**A.** Its value is “significantly more”.

**Q.** And the “resistance development” value (MRSA)?
**A.** Its value is “Delayed resistance development”.

**Q.** ramoplanin was tested. Which “resistance development” value (MRSA) did it give?
**A.** Its value is “decreased resistance development is not shown”.
